Measurements: ChEMBL document CHEMBL1201862, “PubChem BioAssay data set” (2004)
Each block holds one molecule with its values, some of them ahead of it. Calls of active or inactive are those of the source.

Assays:
[1] = molecular target: T1, Eukaryotic translation initiation factor 2-alpha kinase 3 (Homo sapiens, UniProt Q9NZJ5); assay: Dose response cell-based high-throughput screening assay to measure PERK inhibition. [Related pubchem assays: 1416 ]; format: functional
[2] = molecular target: T1, Eukaryotic translation initiation factor 2-alpha kinase 3; assay: Counterscreen assay for PERK inhibitors: Dose response cell-based high throughput screening assay to measure inhibition of PERK at 6 hours. [Related pubchem assays: 1522, 1416 ]; format: functional
[3] = molecular target: T2, Corticotropin-releasing factor receptor 2/Corticotropin-releasing factor-binding protein (Homo sapiens, UniProt P24387+Q13324); assay: Dose Response confirmation of uHTS hits for small molecule antagonists of the CRF-binding protein and CRF-R2 receptor complex.; format: functional; details: read-out: IC50_Mean
T2 sequence (Q13324 whole entry): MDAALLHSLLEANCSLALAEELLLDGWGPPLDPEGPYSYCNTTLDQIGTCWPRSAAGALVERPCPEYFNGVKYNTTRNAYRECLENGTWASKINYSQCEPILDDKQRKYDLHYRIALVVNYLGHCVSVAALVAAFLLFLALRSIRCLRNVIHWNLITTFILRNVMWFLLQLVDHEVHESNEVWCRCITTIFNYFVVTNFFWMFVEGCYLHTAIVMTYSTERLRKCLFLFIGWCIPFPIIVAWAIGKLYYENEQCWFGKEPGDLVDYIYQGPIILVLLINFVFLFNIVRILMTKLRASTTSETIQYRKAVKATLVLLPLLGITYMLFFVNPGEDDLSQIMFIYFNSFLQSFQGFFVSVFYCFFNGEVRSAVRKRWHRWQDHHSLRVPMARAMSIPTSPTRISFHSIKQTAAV
T2 sequence (P24387 whole entry): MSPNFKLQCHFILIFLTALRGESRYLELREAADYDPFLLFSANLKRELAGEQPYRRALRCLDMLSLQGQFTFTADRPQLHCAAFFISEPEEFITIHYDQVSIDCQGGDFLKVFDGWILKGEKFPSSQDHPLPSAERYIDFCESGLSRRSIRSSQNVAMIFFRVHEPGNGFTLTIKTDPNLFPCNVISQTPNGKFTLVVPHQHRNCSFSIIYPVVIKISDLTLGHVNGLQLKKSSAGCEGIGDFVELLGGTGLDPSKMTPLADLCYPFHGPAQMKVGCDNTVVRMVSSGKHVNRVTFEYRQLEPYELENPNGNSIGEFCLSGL

[4] = molecular target: T2, Corticotropin-releasing factor receptor 2/Corticotropin-releasing factor-binding protein; assay: activators of CRF receptor 2 with binding protein – uHTS hits, confirmation (AID 602473); format: functional; details: read-out: EC50_Mean
[5] = molecular target: Melanin-concentrating hormone receptor 1 (Homo sapiens, UniProt Q99705); assay: Late-stage fluorescence-based counterscreen for antagonists of the G-protein coupled receptor 7 (GPR7): cell-based dose response assay to identify antagonists of the melanin-concentrating hormone receptor 1 (MCHR1). [Related pubchem assays (depositor defined):AID1861, AID1880, AID1952, AID2148, AID2251, AID2257, AID485339]; format: functional;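 note: stimulated with 30 nM MCH peptide agonist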
Melanin-concentrating hormone receptor 1, sequence (Q99705 whole entry): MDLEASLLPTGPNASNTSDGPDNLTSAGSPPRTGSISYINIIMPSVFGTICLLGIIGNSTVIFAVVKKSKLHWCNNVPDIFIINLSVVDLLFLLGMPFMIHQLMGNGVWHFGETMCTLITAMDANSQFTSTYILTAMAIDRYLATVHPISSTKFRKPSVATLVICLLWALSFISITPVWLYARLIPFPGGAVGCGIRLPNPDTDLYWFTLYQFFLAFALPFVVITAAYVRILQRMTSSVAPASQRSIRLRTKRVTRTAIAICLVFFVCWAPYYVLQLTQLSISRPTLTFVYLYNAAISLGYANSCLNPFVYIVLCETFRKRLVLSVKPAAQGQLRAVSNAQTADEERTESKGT

cells [6] = format: functional, cell-based
cells [7] = format: functional, cell-based; remark: listed apart in the source
INS1 = assay: beta cell apoptosis inhibitors, cytokine rescue, dose response, luminescence, retest (AID 449756); format: functional, cell-based; details: Rattus norvegicus;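 note: cell death triggered by IL-1 beta plus TNF-alpha plus IFN-gamma mixture; protective hits raise ATP signal compared with cytokine alone wells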
[8] = Luminescence-based counterscreen assay for KLF5 inhibitors: dose response cell-based high throughput screening assay to identify cytotoxic compounds using the IEC-6 intestinal epithelial cell line. [Related pubchem assays: 1700 (Primary screen.), 1834 (Confirmation screen.), 1858 (Summary AID.), 1905 (Counterscreen.)]; format: functional
[9] = molecular target: G2/mitotic-specific cyclin-B1 (Homo sapiens, UniProt P14635); assay: Counterscreen assay for inhibitors of Wee1 degradation: dose response cell-based assay to identify inhibitors of cyclin B degradation. [Related pubchem assays: 1410, 1321 ]; format: functional
G2/mitotic-specific cyclin-B1, sequence (P14635 whole entry): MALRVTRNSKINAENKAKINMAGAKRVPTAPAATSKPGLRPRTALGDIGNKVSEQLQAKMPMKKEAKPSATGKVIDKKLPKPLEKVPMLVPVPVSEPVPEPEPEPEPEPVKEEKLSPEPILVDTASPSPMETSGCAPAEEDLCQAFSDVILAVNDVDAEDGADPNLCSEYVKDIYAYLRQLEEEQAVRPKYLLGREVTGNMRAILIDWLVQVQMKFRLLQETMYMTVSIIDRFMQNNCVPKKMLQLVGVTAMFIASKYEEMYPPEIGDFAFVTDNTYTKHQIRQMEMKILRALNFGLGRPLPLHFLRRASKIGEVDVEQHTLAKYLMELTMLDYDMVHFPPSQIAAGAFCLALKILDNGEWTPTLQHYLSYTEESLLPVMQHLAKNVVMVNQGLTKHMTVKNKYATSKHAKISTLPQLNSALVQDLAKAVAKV

Wee1-like protein kinase = Wee1-like protein kinase (Homo sapiens, UniProt P30291); assay: Dose Response Cell-based Assay for Inhibitors of Wee1 Degradation. [Related pubchem assays: 1410, 1321 ]; format: functional
Wee1-like protein kinase, sequence (P30291 whole entry): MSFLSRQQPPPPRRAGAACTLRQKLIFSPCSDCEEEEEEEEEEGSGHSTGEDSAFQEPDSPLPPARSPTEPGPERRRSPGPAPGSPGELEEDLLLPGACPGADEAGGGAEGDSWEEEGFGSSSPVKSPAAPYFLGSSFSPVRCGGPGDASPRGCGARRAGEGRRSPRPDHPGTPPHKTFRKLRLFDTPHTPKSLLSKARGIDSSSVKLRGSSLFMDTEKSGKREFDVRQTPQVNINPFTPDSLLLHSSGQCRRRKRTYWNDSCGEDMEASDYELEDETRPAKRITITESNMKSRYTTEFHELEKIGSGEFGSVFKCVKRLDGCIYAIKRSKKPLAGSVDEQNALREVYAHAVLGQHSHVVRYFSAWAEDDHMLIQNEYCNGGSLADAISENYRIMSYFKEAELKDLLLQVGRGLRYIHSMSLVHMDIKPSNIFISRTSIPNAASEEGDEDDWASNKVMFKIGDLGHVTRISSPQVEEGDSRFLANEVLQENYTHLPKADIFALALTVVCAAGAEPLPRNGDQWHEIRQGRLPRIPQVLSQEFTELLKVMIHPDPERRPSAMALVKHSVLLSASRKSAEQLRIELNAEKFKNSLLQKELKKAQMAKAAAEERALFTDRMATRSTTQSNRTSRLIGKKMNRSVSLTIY

[10] = Vero cell cytotoxicity, dose response, cytotoxicity control for Vif-APOBEC3G degradation inhibitor project, Vero cells (AID 1117358); format: functional; details: Human immunodeficiency virus 1, Vero
[11] = molecular target: Potassium voltage-gated channel subfamily KQT member 2 (Rattus norvegicus, UniProt O88943); assay: Mode of action assay - current amplitude concentration response for derivatives of ZTZ240, a potentiator of KCNQ2 potassium channels. [Related pubchem assays: 2258 (Summary assay for the KCNQ2 potentiators.), 2239 (Primary HTS assay for KCNQ2 potentiators with 305606 compounds tested, and 1644 are found to be active.)]; format: functional
Potassium voltage-gated channel subfamily KQT member 2, sequence (O88943 whole entry): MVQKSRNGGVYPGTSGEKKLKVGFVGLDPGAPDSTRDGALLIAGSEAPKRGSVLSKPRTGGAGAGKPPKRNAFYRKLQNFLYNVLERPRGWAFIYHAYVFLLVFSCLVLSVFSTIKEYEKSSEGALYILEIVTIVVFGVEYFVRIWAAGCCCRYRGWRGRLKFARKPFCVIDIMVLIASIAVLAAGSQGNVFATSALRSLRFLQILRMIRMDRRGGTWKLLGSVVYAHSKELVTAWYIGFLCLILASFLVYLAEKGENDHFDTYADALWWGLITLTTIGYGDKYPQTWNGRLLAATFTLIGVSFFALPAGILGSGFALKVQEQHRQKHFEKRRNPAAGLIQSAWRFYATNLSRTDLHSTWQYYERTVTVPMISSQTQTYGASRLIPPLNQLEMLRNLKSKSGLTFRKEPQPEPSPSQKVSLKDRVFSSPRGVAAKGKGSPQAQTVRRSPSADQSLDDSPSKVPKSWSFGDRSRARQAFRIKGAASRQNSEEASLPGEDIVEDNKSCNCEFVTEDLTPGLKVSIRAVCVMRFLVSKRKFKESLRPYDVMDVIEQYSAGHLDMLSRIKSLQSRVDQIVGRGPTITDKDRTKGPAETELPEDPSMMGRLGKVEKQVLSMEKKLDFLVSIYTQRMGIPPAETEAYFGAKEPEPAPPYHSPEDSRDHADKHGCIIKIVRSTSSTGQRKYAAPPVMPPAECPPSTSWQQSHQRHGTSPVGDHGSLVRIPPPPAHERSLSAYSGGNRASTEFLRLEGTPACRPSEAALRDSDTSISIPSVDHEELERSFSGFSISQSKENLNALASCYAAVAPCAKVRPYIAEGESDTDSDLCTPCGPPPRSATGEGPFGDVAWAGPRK

[12] = molecular target: Metabotropic glutamate receptor 4 (Homo sapiens, UniProt Q14833); assay: Modulation of the Metabotropic Glutamate Receptor mGluR4: Calcium Assay. [Related pubchem assays: 2180, 2199, 2193, 2179, 2182, 2183, 2191, 2181, 2190, 2188, 2185, 2197 ]; format: functional
Metabotropic glutamate receptor 4, sequence (Q14833 whole entry): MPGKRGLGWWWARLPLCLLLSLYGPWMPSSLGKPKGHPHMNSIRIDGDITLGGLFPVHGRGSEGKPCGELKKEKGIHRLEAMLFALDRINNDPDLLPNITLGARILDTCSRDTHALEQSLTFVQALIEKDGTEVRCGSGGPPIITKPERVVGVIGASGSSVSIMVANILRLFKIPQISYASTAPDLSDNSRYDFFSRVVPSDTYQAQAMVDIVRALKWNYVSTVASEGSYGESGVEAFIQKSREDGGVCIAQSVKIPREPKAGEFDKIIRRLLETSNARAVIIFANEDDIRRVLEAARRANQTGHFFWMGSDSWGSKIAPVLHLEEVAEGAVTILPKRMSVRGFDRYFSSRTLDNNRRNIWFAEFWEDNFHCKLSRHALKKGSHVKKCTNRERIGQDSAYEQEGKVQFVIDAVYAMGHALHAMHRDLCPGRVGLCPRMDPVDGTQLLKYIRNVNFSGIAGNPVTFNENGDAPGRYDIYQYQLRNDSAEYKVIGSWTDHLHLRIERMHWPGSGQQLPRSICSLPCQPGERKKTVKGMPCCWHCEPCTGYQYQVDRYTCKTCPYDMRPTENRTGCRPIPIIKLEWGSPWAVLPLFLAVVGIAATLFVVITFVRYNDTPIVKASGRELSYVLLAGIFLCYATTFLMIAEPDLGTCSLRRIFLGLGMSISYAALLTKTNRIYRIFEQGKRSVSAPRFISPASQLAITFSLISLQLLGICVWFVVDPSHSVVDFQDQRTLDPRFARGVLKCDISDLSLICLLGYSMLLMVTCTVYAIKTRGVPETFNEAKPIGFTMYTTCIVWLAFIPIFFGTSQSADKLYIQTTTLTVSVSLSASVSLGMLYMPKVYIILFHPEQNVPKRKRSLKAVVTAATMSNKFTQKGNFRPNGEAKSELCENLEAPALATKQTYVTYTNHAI

T1 sequence (Q9NZJ5 whole entry): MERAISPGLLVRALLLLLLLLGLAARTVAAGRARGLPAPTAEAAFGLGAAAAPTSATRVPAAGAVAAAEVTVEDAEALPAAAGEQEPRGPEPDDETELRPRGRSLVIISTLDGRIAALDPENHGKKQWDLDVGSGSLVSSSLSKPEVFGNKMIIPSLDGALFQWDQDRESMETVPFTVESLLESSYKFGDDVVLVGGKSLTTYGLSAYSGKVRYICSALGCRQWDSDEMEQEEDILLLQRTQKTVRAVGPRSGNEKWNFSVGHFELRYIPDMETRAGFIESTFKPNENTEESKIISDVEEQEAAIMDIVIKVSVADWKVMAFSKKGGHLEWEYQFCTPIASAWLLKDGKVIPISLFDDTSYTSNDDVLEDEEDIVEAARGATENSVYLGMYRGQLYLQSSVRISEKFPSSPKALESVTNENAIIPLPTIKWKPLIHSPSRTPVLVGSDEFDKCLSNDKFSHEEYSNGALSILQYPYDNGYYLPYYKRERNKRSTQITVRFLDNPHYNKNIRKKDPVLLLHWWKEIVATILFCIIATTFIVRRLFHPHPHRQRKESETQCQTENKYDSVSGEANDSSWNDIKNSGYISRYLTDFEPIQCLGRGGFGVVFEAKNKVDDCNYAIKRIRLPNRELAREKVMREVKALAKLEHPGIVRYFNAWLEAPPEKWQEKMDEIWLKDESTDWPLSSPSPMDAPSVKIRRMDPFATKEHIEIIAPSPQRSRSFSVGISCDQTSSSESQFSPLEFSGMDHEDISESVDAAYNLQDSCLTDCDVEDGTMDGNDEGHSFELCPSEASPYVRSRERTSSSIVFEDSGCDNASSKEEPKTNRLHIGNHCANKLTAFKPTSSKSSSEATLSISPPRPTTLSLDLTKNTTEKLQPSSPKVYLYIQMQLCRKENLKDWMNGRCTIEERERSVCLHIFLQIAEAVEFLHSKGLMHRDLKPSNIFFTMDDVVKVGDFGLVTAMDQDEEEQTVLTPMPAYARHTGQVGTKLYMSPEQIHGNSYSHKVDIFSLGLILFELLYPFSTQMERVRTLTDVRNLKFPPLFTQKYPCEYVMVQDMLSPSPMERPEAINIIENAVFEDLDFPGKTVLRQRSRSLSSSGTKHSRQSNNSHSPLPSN

IC50 [5]: 4 µM (active)
SMILES: CCOC(=O)c1ccc(-n2ncc(Cl)c(Oc3ccc(OC)cc3)c2=O)cc1

EC50 [9]: > 49.7 µM (not active)
EC50 (Wee1-like protein kinase): > 49.7 µM (not active)
SMILES: COc1ccc(/C=N/NC(=O)c2ccc3ccccc3c2)cc1OS(=O)(=O)c1ccc(NC(C)=O)cc1
CC50 [10]: > 40 µM (active)

The next lines start with the molecule.

SMILES: C=CCN(c1ccccc1)S(=O)(=O)c1cccc(C(=O)O)c1
EC50 [1]: > 55.7 µM (not active)
EC50 [2]: > 55.7 µM (not active)
IC50 [3]: > 47.1 µM (inactive)
EC50 [4]: > 53 µM (inactive)

SMILES: O=C(N/N=C/c1cc(Br)ccc1OC(=O)c1ccc(Br)cc1)c1ccncc1
EC50 (cells [6]): 20 µM (active)
EC50 (cells [7]): 121 µM (active)
AC50 (INS1): 2.29 µM (active)
IC50 [8]: 5.99 µM (active)

SMILES: O=C(Nc1ccc(Cl)nc1)c1ccc(F)c(F)c1
EC50 [11]: 14.4 µM (active)

SMILES: COc1nc(NC(=O)c2ccccn2)ccc1Cl
EC50 [12]: 6.4 µM (active)
